Data set [1] has as its target T1, rat Cyp 2C6 (Rattus norvegicus, UniProt P05178).
T1 construct: purchased BD Gentest; host or cells: baculovirus infected insect cells
The experiment in a line: Recombinant rat Cyp phenotype profiling, 2C6. The format is in vitro ADME. Particulars: 60 min. How it is done:
Identification of the drug metabolizing enzymes (DMEs) of A-998679 was studied in cDNA expressed recombinant enzymes prepared from baculovirus infected insect cells over-expressing rat Cyp isoforms (BD Gentest, Woburn, MA) as listed in Table 2. Incubations were conducted in duplicate using Supersomes. The incubation mixture contained 100 pmol/ml of enzymes, except for Cyp1a1 (200 pmol/ml), 0.1 or 0.21 μM of [^3H]A-998679 in 100 mM phosphate buffer (pH 7.4). Reactions were initiated with the addition of NADPH at a final concentration of 1 mM and incubated at 37°C for 60 min. At the end of the incubation period, the incubations were terminated by the addition of acetonitrile/ethanol (50/50, v/v) solution. Insect control samples lacking expressed enzyme were used as negative control. The degree of metabolism of A-998679 was assessed by percent of parent remaining using the radio-HPLC method described below.
Radiolabeled components from the above assays were profiled following separation by HPLC with on line radioflow detector. The system consisted of an Agilent 1100 Series quaternary pump and autosampler connected to a Packard 500TR flow scintillation detector. The data were processed using the Radiomatic™ Flo-one® software v3.65. The scintillant (Perkin Elmer FLO-SCINT™ III) flow was maintained at 3 ml/min. […]

Data set [2] deals with T2, AhR (Homo sapiens, UniProt P35869).
T2 construct: endogenous in cells; host or cells: HepG2
T2 sequence (P35869 11-848): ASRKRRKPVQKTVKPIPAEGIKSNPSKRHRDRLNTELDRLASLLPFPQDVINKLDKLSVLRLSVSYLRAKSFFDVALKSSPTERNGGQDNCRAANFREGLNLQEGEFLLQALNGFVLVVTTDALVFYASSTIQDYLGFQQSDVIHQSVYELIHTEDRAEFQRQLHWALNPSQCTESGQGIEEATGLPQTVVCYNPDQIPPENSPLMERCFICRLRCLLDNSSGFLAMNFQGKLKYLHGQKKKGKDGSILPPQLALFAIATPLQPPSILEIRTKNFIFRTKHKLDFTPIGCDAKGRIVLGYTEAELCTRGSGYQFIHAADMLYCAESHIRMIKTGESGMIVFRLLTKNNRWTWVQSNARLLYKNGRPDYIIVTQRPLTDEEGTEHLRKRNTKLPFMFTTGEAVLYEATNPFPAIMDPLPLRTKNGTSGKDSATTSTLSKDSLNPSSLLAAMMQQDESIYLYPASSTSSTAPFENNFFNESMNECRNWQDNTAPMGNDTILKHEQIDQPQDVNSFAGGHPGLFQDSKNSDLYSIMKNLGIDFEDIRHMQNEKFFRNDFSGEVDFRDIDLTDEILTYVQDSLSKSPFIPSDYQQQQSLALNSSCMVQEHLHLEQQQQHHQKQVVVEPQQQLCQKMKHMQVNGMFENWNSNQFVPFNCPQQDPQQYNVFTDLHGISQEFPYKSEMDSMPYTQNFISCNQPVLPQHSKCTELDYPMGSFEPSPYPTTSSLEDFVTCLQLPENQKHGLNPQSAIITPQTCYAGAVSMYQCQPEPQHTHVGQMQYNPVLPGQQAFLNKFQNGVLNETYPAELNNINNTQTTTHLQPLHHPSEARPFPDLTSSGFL
The experiment in a line: AhR nuclear translocation assay in HepG2 cells. The format is cell-based. The conditions noted are these: for AhR nuclear staining (% positive cells) 2 h: vehicle 15.6; for AhR nuclear staining (% positive cells) 24 h: vehicle 3.4. How it is done:
HepG2 cells were plated in Lab-Tek II Chamber slides (Nalgene, Rochester, NY) at a seeding density of 50,000 cells/well. The cells were allowed to attach overnight and were treated for 2 h or 24 h with 10 or 40 μM A-998679, 2 μM 3-methylchloranthrene (3-MC) as a positive control, or 0.1% (v/v) DMSO vehicle. The cells were fixed in fresh 3% paraformaldehyde solution in PBS followed by a PBS wash, and were then permeabilized for 5 min using 0.2% Triton X-100 in PBS followed by another PBS wash. The cells were then incubated with blocking buffer consisting of 1% BSA/PBS solutions and immediately incubated with a 1:50 dilution of rabbit polyclonal antibody to AhR (Abcam, Cambridge, MA catalog# 63636) for 1 h at 37°C. Cells were then washed with PBS, re-blocked for 10 min, and stained with an Alexa 546 donkey anti-rabbit secondary antibody (diluted 1:200; Invitrogen Life Technologies) for 45 min at 37°C. The cells were then washed with PBS, stained with 0.5 μM Hoescht solution for 15 min, and again washed with PBS. The chamber slides were sealed and examined under the microscope. Images were acquired with a SPOT RT SE digital camera (Diagnostic Instruments, Sterling Heights, MI) mounted on a Leica (Wetzlar, Germany) DMIRE inverted florescence microscope using a 20× objective. Image acquisition was done using Metamorph® software (Molecular Devices, Sunnyvale, CA) and percent translocation of the AhR probe was quantitated using MetaXpress (Molecular Devices). Twenty microscope fields were evaluated per well (~3000–6000 cells/well).

T1 sequence (P05178 whole entry): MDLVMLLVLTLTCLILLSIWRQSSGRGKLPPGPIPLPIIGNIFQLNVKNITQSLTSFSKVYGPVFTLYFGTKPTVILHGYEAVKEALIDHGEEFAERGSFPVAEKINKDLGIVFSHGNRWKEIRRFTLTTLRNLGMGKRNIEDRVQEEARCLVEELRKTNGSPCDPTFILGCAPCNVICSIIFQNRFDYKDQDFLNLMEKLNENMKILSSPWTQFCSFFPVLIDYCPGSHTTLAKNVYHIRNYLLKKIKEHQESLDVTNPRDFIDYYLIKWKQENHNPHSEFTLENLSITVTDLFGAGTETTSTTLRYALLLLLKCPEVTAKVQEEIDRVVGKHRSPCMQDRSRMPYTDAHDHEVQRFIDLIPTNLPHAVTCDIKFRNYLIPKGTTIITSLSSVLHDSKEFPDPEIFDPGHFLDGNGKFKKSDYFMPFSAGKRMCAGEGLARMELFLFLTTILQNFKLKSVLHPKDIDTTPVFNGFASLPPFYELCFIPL

Regarding `N#Cc1cccc(-c2noc(-c3cccnc3)n2)c1` [A-998679, 3-(5-pyridin-3-yl-1,2,4-oxadiazol-3-yl) benzonitrile], the “% parent remaining” value in data set [1] (recombinant rat Cyp 2C6, 0.10 μM) is 91.0%; in data set [1] (recombinant rat Cyp 2C6, 0.21 μM), 88.8%. Besides, the “AhR nuclear staining (% positive cells) 2 h” value was determined as 18.8 % positive cells in data set [2] (10 μM) and 29.6 % positive cells in data set [2] (40 μM). Besides, the “AhR nuclear staining (% positive cells) 24 h” value in data set [2] (10 μM) is listed as 4.5 % positive cells; in data set [2] (40 μM) it was 6.3 % positive cells.

Values taken from article PMC3481155, “AhR activation underlies the CYP1A autoinduction by A-998679 in rats” (Frontiers in Genetics, 2012).
